Earlier results in patent US20090143362A1, “CARBAMAZEPINE FORMULATIONS” (priority 2007, published 2009).

How the values were obtained:
[1] = in presence of water, after 1 hour, X-ray powder diffraction
[2] = blood level

water solubility: poorly water-soluble | conversion to carbamazepine dihydrate complete [1]: 95% | therapeutic range [2]: 4 to 12 µg/mL
SMILES: NC(=O)N1c2ccccc2C=Cc2ccccc21 [Carbamazepine, 5H-dibenz-[b,f]azepine-5-carboxamide]
